Results on 2 compounds are retold here after patent US11130762B2, “Azaaryl derivative, preparation method therefor, and application thereof for use in pharmacy” (Abbisko Therapeutics Co., Ltd., priority 2017, dated 2021).

For experiment [1], the system named is M-07e human cytomegalic leukemia cells. The experiment can be described thus: Cell proliferation (Cell Titer Glo), M-07e cells with SCF (KIT). The format is cell-based. The note with it: 72 h, 3 days, CTG, * = average of multiple tests, read-out: Cytological experiment KIT IC50. The procedure:
D. CSF-1R-Related Cell Proliferation Experiment
Functional effects of compounds on the proliferation of several cell lines were evaluated by Cell Titer Glo (CTG) studies in the present invention, and effects of the compounds on the proliferation of different cells were evaluated to determine the selectivity degree of the compounds. In the experiment, M-07e human cytomegalic leukemia cells (cat. No. CBP60791) from Nanjing Kebai Biotechnology Co., Ltd. were cultured in an incubator under conditions of RPMI1640 (Gibco, cat. No. 11875-119), 20% fetal bovine serum (Gibco, 10099-141), human 10 ng/mL GM-CSF granulocyte macrophage colony-stimulating factors (R&D, cat. No. 215-GM-010), 37° C., and 5% CO2; and Kasumi-1 human acute myeloblastic leukemia cells (cat. No. CBP60524) were cultured in an incubator under conditions of RPMI1640 (Gibco, cat. No. 11875-119), 20% fetal bovine serum (Gibco, 10099-141), 37° C., and 5% CO2: NCI-H1703 human non-small cell lung squamous carcinoma cells (cat. No. CBP60115) were cultured in an incubator under conditions of RPMI1640 (Gibco, cat. No. 11875-119), 10% fetal bovine serum (Gibco, 10099-141), 37° C., and 5% CO2; MV-4-11 human acute monocytic leukemia cells (cat. No. CBP60522) were cultured in an incubator under conditions of IMDM (Invitrogen, cat. No. 12440053), 20% fetal bovine serum (Gibco, 10099-141), 37° C., and 5% CO2. Since ATP is an index for viable cell metabolism, CTG (Promega, #G7573) reagent is a homogeneous detection method for detecting the number of viable cells in the culture by quantifying ATP. Therefore, compound-mediated inhibition for cell proliferation/survival was evaluated by quantifying ATP content in cells, and the specific experimental process was as follows.
I) M-07e Human Cytomegalic Leukemia Cell:
1. The cells were plated into a tissue-culture-medium-treated 96-well plate (Costar #3904) with 3500 cells/well/80 μL fresh culture medium, and cultured for 24 hrs;
2. the next day, 10 μL of culture medium containing testing compound with 10-fold of final concentration was added to each well:
3. 10 μL of culture medium containing SCF recombinant human stem cell factor (R&D, cat. No. 7466-SC-010) with 10-fold of the final concentration was then added to each well;
4. the dosage effect was evaluated by testing 4-fold serial dilutions of the compound, which started from 18 μM;
5. after the cells were incubated for 3 days at 37° C. and 5% CO2, the inhibition on cell survival was quantified after 50 μL of CTG was added and the luminescence assay was performed;
6. the compound concentration leading to half maximal inhibitory (IC50) and the compound concentration leading to absolute half maximal inhibitory (Absolute IC50) were measured by a plate reader (M1000, Tecan) and a four-parameter curve fit in Graphpad Prism 7.

The target of another experiment is KIT kinase (Homo sapiens, UniProt P10721). The experiment can be described thus: KIT in vitro biochemical kinase study (Caliper EZ Reader). The note with it: Caliper mobility shift; read-out: Enzymatic experiment KIT IC50. As to the method: (§1) B. KIT/PDGFRA In Vitro Biochemical Kinase Study
(§2) 1. Preparation of 1-Fold Kinase Buffer and Stop Solution
(§3) 1.2 stop solution: 100 mM HEPES, pH 7.5, 0.015% Brij-35, 0.2% Coating Reagent #3, 50 mM EDTA
(§4) 2. Preparation of Compound Solution
(§5) 2.1 Dilution of Compound Solution
(§6) 1) The final concentration of the compound solution was 40 μM, and the concentration of the prepared stock solution was 50 times of the final concentration, i.e., 2 mM.
(§7) 2) 80 μL of 100% DMSO was added to the second well of the 96-well plate, then 20 μL of 10 mM compound solution was added, and thereby 2 mM compound solution was prepared, 60 μL of 100% DMSO was added to other wells, 20 μL of compound was taken from the second well, added to the third well and diluted by 4 times. This serial 4-time dilution was conducted in sequence for the total of 10 concentrations.
(§8) 2.2 5-Fold Compound Solution Transferred to a Reaction Plate
(§9) 1) 10 μL of solution was taken from each well of the above 96-well plate and added to another 96-well plate, and 90 μL of kinase buffer was added.
(§10) 2) 5 μL of solution was taken from the above 96-well plate and added to a 384-well reaction plate.
(§11) 1) KIT/PDGFRA kinase was added to the 1-fold kinase buffer solution to obtain a 2.5-fold kinase solution.
(§12) 2) FAM-labeled polypeptide and ATP were added to the 1-fold kinase buffer solution to obtain a 2.5-fold substrate solution.
(§13) 3) 10 μL of 2.5-fold kinase solution was added to the 384-well reaction plate, which already contained 5 μL of 5-fold compound in 10% DMSO. And the mixed solution was incubated at room temperature for 10 min.
(§14) 4) 10 μL of 2.5-fold substrate solution was added to the 384-well reaction plate.
(§15) 5) Kinase reaction and termination: the mixed solution was incubated at 28° C. for a certain period of time, and 25 μL of stop solution was added to stop the reaction.
(§16) 2.4 Data Reading of Caliper EZ Reader II
(§17) 2.5 Calculation of Percent Inhibition and IC50
(§18) 1) Percent conversion data were copied from the Caliper EZ Reader. […]

The next experiment addresses PDGFRA kinase (Homo sapiens, UniProt P16234). The experiment can be described thus: PDGFRA in vitro biochemical kinase study (Caliper EZ Reader). The note with it: Caliper mobility shift; read-out: Enzymatic experiment PDGFRA IC50. The procedure: as §1, §2, §3, §4, §5, §6, §7, §8, §9, §10, §11, §12, §13, §14, §15, §16, §17, §18

A value given as a limit tells only on which side of the number the result lay.

Chain of PDGFRA kinase (P16234 24-1089): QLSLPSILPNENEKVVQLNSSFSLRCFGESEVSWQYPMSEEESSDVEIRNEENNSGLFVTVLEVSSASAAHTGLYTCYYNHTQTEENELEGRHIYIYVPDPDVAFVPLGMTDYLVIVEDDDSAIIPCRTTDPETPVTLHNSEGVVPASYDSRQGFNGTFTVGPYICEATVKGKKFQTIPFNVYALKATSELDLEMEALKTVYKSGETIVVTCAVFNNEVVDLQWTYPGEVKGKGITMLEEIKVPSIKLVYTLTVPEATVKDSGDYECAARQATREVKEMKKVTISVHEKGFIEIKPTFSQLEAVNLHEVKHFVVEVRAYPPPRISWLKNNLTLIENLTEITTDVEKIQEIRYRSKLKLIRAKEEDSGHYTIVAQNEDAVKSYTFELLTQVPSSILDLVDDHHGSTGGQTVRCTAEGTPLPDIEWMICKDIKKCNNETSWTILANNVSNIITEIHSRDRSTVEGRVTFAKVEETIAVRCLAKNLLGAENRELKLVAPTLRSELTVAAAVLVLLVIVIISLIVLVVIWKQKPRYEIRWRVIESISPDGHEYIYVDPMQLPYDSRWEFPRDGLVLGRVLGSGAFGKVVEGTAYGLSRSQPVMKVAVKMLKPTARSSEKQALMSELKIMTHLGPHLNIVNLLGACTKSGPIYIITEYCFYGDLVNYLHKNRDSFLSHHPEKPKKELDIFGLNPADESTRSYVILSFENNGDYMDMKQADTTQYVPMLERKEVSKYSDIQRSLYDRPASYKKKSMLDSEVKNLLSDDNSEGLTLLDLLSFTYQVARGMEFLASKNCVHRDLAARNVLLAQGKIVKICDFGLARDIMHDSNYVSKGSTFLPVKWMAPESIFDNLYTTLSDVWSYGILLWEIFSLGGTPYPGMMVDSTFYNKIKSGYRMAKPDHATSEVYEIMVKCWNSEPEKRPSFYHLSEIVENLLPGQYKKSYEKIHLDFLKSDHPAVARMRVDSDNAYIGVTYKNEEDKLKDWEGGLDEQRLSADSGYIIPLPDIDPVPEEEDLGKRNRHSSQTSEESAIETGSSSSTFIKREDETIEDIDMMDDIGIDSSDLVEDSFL
Chain of KIT kinase (P10721 26-976): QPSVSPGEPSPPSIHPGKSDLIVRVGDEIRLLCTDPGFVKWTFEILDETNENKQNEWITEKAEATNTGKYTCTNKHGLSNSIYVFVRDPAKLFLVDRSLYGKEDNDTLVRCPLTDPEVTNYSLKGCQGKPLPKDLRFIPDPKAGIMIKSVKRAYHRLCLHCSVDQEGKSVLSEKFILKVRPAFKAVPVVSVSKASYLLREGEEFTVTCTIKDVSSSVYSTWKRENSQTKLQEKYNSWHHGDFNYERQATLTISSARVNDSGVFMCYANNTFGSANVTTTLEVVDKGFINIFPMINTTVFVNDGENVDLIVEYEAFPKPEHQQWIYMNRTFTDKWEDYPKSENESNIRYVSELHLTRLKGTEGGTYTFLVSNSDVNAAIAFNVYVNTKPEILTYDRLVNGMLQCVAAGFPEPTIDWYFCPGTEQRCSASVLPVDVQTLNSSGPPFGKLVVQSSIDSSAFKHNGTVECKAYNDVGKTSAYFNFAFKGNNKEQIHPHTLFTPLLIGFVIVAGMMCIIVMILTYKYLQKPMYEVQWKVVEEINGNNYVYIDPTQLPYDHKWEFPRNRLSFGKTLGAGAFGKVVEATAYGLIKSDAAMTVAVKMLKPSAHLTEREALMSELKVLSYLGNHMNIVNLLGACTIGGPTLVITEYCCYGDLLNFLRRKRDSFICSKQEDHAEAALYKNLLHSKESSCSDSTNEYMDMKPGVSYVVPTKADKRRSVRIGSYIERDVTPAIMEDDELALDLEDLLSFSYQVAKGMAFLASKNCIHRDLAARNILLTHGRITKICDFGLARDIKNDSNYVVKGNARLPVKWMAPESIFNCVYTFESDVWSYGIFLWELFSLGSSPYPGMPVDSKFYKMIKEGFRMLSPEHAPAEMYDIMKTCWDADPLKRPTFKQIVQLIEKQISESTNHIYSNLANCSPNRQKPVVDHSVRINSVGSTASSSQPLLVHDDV

`Cc1nc(-c2cnc3n(c2=O)CCCN3C)ccc1Oc1ccnc(-c2cnn(C)c2)c1` [Example 1, 9-methyl-3-(6-methyl-5-((2-(1-methyl-1H-pyrazol-4-yl)pyridin-4-yl)oxy)pyridin-2-yl)-6,7,8,9-tetrahydro-4H-pyrimido[1,2-a]pyrimidin-4-one]: the IC50 in experiment [1] is over 2000 nM; on KIT kinase, 365 nM; at PDGFRA kinase, 9310 nM.
The corresponding values for `CCN1CCCn2c1ncc(-c1ccc(Oc3ccnc(-c4cnn(C)c4)c3)c(C)n1)c2=O` [Example 4] are 436 nM, 20.5 nM and 757 nM.
